Source: patent US11555200B2, “Regulation of cotton fiber growth by extracellular nucleotides and ectoapyrases” (priority 2008, dated 2023)
Entries after “also recorded” stand apart in the source; their conditions may differ.

What was measured:
cotton fibers = experiment: In vitro cotton ovule culture, fiber growth (fiber length); format: cell-based, Gossypium hirsutum; details: for increase in average fiber length: by 7 dpa; for block of promotion of fiber growth by 30 μM ATPγS and ADPβS: co-applied with 30 μM nucleotide, 7 dpa; for reversal of the effects of high concentrations of ATPγS and ADPβS on fiber growth: co-applied with 150 μM ATPγS or ADPβS; for block of both the inhibition and stimulation of fiber growth by ATPγS and ADPβS: summary statement
Experimental: In Vitro Ovule Culture. Cotton bolls were harvested within 24 hours of flower opening, 1-DPA, and all petals bracts, and sepals were removed. All collected cotton bolls were used within 24 hours of original harvest. If the bolls were not used immediately they were stored in a 4° C. refrigerator until ready for use. For sterilization, bolls were dropped into an 85% ethanol solution for at least 30 seconds but not more than two minutes and then removed with forceps. The excess ethanol was shaken off and the boll was passed through a flame until the residual ethanol was burned off. Ovules were then excised and placed in 10 mL of BT Cotton Media cell culture (Caisson Laboratories, Inc., North Logan, Utah, USA)+5.0 μM IAA and 0.5 μM GA3 (Sigma, St. Louis, Mo., USA) hormone solution, final concentration, in 60×15 mm Petri dishes and were then wrapped in Milli Wrap (Millipore Corporation, Bedford, Mass.). Twelve to 16 cotton ovules were placed into their respective Petri dishes and incubated with nucleotides, inhibitors, antibody serum or a combination of these at specified concentrations and were cultured at 32° C. in the dark without agitation. To facilitate combing of the cultured ovules, ovules were placed in a 75% ethanol solution for 15 minutes and then taken out to be combed. Fiber lengths were measured manually with a dissecting microscope after laying the ovule on its side and combing the fiber cells away from the ovule with forceps and dissecting probe.
In Vitro Cotton Ovule Culture Treatments. For studies testing the effects of apyrase inhibitors on cotton fiber growth, the inhibitors (NGXT191 and AI #4, both at 2.5 mg/mL), were dissolved in dimethyl sulfoxide and then applied to Cotton Media cell culture at 3 and 5 DPA after the introduction of cotton ovules to the media. For experiments testing the effects of apyrase antibodies on cotton fiber growth, apyrase antibodies were applied to Cotton Media cell culture at 3 and 5 DPA after the introduction of cotton ovules in the appropriate amounts. For experiments testing the effects of applying nucleotides during cotton fiber growth, various concentrations of ATPγS, ADPβS, and AMP (Sigma-Aldrich, Inc., St. Louis, Mo., USA) were added to Cotton Media cell culture at 5 DPA after the introduction of cotton ovules in the appropriate amounts. All nucleotides were made into 50 mM stocks dissolved in de-ionized water and kept at −20° C. while not in use. The inhibitor stocks were stored at ˜20° C. while not in use. For experiments testing the effects of P2-receptor antagonists, the antagonists (PPADS and Adenosine, stocks at 50 mM) were dissolved in de-ionized water and then applied to Cotton Media cell culture at 3 and 5 DPA for inhibitor and antibody experiments and 5 DPA for applied nucleotide experiments. The antagonists stocks were stored at ˜20° C. while not in use (Sigma-Aldrich, Inc., St. Louis, Mo., USA). The ethylene inhibitor (S)-trans-2-Amino-4-(2-aminoethoxy)-3-butenoic acid hydrochloride (Sigma-Aldrich, Inc., St. Louis, Mo., USA) (AVG, stock at 50 mM) was dissolved in de-ionized water and then applied to Cotton Media cell culture at 5 DPA. The production of the Arabidopsis anti-APY1 and APY2 antibodies used is described by Steinebrunner et al. (2003). The crude immune and pre-immune sera were purified using protein A-sepharose following the protocol described by Martin et al. (1982) with the slight modification that the buffers used were azide-free. Bio-rad assay was used to determine that the concentration of the immune serum and pre-immune serum which was 0.46 μg/mL and 0.3 μg/mL, respectively.

apyrase activity = experiment: ATP level in the medium outside growing cotton fibers in ovule culture; format: cell-based, Gossypium hirsutum; details: highest concentration of inhibitor, versus control level of 330 nM
Description: Apyrase inhibitors and anti-apyrase antibodies inhibit fiber elongation. In order to test whether apyrase activity is important during cotton fiber growth we applied varying concentrations of two different chemical apyrase inhibitors, apyrase inhibitor 4 and NGXT191, to cotton ovule cultures at 3 dpa and 5 dpa. […] There is clearly a dose-dependent effect, and the effects at each dosage are statistically significant. […] The level of inhibition increased with increasing concentrations of both inhibitors. Next when PPADS, an inhibitor of animal purinoceptors, was tested, it could block the 40% inhibition of fiber growth caused by application of the highest concentration of apyrase inhibitors. […] Application of the highest concentration of inhibitors NGXT191 and 4 caused a 2.1-fold and 3.2-fold increase in ATP levels, respectively.
In Vitro Ovule Culture. Cotton bolls were harvested within 24 hours of flower opening, 1-DPA, and all petals bracts, and sepals were removed. All collected cotton bolls were used within 24 hours of original harvest. If the bolls were not used immediately they were stored in a 4° C. refrigerator until ready for use. […] Fiber lengths were measured manually with a dissecting microscope after laying the ovule on its side and combing the fiber cells away from the ovule with forceps and dissecting probe. […]

| Compound | increase in average fiber length (cotton fibers; 30 μM) | effect on fiber growth (cotton fibers; 150 μM, at 7 dpa) | block of promotion of fiber growth by 30 μM ATPγS and ADPβS (cotton fibers) | reversal of the effects of high concentrations of ATPγS and ADPβS on fiber growth (cotton fibers) | block of both the inhibition and stimulation of fiber growth by ATPγS and ADPβS (cotton fibers) | also measured |
| --- | --- | --- | --- | --- | --- | --- |
| Nc1ncnc2c1ncn2[C@@H]1O[C@H](COP(=O)(O)OP(O)(O)=S)[C@@H](O)[C@H]1O [ADPβS] | 44% | inhibit growth |  |  |  |  |
| Nc1ncnc2c1ncn2[C@@H]1O[C@H](COP(O)(O)=S)[C@@H](O)[C@H]1O [AMPS] |  |  |  |  |  | effect on fiber growth (cotton fibers; 200 μM, at 7 dpa): no effect on growth; effect on fiber growth (cotton fibers; concentration not given): no change in the growth rate; also recorded: no effect on fiber growth |
| Nc1ncnc2c1ncn2[C@@H]1O[C@H](COP(=O)(O)OP(=O)(O)OP(O)(O)=S)[C@@H](O)[C@H]1O [ATPγS] | 46% | inhibit growth |  |  |  | promotion of cotton fiber growth (cotton fibers; 30 μM, at 5 dpa (data not shown)): statistically significant levels of promotion of cotton fiber growth; growth rate of fibers (cotton fibers; 30 μM, between 5 dpa and 7 dpa (data not shown)): statistically significant increase in the growth rate; inhibition of cotton fiber growth (cotton fibers; 150 μM, at 5 dpa): Statistically significant levels of inhibition of cotton fiber growth |
| Cc1cccc(NS(=O)(=O)c2ccc(-c3ccccc3)cc2)c1 [NGXT191] |  |  |  |  |  | increase in ATP levels outside of the growing fibers (apyrase activity): 2.1 fold; inhibition of fiber growth (cotton fibers; all three concentrations, applied at 3 dpa and 5 dpa, fibers measured at 7 dpa): statistically significant inhibition of fiber growth |
| Cc1nc(N=Nc2ccc(S(=O)(=O)O)cc2S(=O)(=O)O)c(COP(=O)(O)O)c(C=O)c1O [PPADS] |  |  | blocked | reversed | blocked | reversal of fiber growth inhibition caused by apyrase inhibitors (cotton fibers; 250 μM PPADS in the media with highest concentration of apyrase inhibitors): returned to control levels |
| Nc1ncnc2c1ncn2[C@@H]1O[C@H](CO)[C@@H](O)[C@H]1O [adenosine] |  |  | blocked | reversed | blocked |  |
